This note sets out measurements from patent publication US7338949B2, “Mycobacterial inhibitors” (Janssen Pharmaceutica N.V., priority 2004, dated 2008).

Data set [1] concerns M. Smegmatis ATCC607. As to the kind of experiment: In-vitro method for testing compounds for anti-bacterial activity against strain M. Smegmatis ATCC607. It counts as cell-based. The settings on record: M. smegmatis growth inhibition, 48 hours at 37° C., Alamar Blue fluorescence; for IC50: Mycolicibacterium smegmatis, ATCC607, 48 h. The procedure:
D.2. In-vitro method for testing compounds for anti-bacterial activity against strain M. Smegmatis ATCC607.
Flat-bottom, sterile 96-well plastic microtiter plates were filled with 180 μl of sterile deionized water, supplemented with 0.25% BSA. Subsequently, stock solutions (7.8× final test concentration) of compounds were added in 45 μl volumes to a series of duplicate wells in column 2 so as to allow evaluation of their effects on bacterial growth. Serial five-fold dilutions (45 μl in 180 μl) were made directly in the microtiter plates from column 2 to 11 using a customised robot system (Zymark Corp., Hopkinton, Mass.). Pipette tips were changed after every 3 dilutions to minimize pipetting errors with high hydrophobic compounds. Untreated control samples with (column 1) and without (column 12) inoculum were included in each microtiter plate. Approximately 250 CFU per well of bacteria inoculum, in a volume of 100 μl in 2.8× Mueller-Hinton broth medium, was added to the rows A to H, except column 12. The same volume of broth medium without inoculum was added to column 12 in row A to H. The cultures were incubated at 37° C. for 48 hours in a humidified 5% CO2 atmosphere (incubator with open air valve and continuous ventilation). At the end of incubation, two days after inoculation, the bacterial growth was quantitated fluorometrically. Therefore Alamar Blue (10×) was added to all wells in a volume of 20 μl and plates were incubated for another 2 hours at […]
The fluorescence was read in a computer-controlled fluorometer (Cytofluor, Biosearch) at an excitation wavelength of 530 nm and an emission wavelength of 590 nm (gain 30). The % growth inhibition achieved by the compounds was calculated according to standard methods. The pIC50 was defined as the 50% inhibitory concentration for bacterial growth.
(The colour change of resazurin is a common sign of viable cells or microbes.)

As usually defined, the melting point is the temperature, or range, at which the solid turns liquid. `COc1nc2ccc(Cl)cc2cc1[C@@H](c1ccccc1)[C@@]1(c2cccc3ccccc23)CC[N+](C)(C)CO1.[I-]` (single isomer, unassigned) came in with a melting point of 195 °C. On the same count and under the same terms, for `COc1nc2ccc(Cl)cc2cc1[C@@H](c1ccccc1)[C@]1(c2cccc3ccccc23)CC[N+](C)(C)CO1.[I-]` (single isomer, unassigned) the value was 211 °C.

In general, IC50 refers to the concentration that inhibits the measured activity by half. Read a high IC50 as weaker potency in that assay. With `COc1nc2ccc(Br)cc2cc1[C@@H](c1ccccc1)[C@]1(c2cccc3ccccc23)CCN(C)CO1` (single isomer, unassigned) [Compound 1], the melting point was 112 °C. The compound further showed an IC50 in data set [1] of 3.16 nM. Taken in the same sequence, the figures for `COc1nc2ccc(Br)cc2cc1[C@@H](c1ccc(Cl)cc1)[C@]1(c2cccc3ccccc23)CCN(C)CO1` (single isomer, unassigned) [Compound 2] were 201 °C and 63.1 nM. Usually pIC50 stands for −log10 of the IC50, conventionally taken in molar units. As to `COc1nc2ccc(Cl)cc2cc1[C@@H](c1ccccc1)[C@@]1(c2cccc3ccccc23)CCN(C)CO1` (single isomer, unassigned) [Compound 3], the melting point came to 189 °C. Moreover, in data set [1], the pIC50 was 5.1. Regarding `CCN1CC[C@](c2ccc(F)cc2F)(C(c2ccccc2)c2cc3cc(Br)ccc3nc2OC)OC1=O` (single isomer, unassigned) [Compound 5], the melting point was determined as 192 °C. For the same compound, in data set [1], half-maximal inhibition (IC50) required 20000 nM. Compound `COc1nc2ccc(-c3ccccc3)cc2cc1[C@@H](c1ccccc1)[C@]1(c2cccc3ccccc23)CCN(C)CO1` (single isomer, unassigned) [Compound 6] had an IC50 in data set [1] of 25.1 nM. In other words, the double-digit nanomolar range. On to `COc1nc2ccc(Cl)cc2cc1[C@@H](c1ccccc1)[C@@]1(c2cccc3ccccc23)CCN(C)CO1` (single isomer, unassigned) [Compound 7], for which the pIC50 in data set [1] is given as 7.9.

`COc1ccc2nc(OC)c([C@@H](c3ccccc3)[C@]3(c4cccc5ccccc45)CCN(C)CO3)cc2c1` (single isomer, unassigned) [Compound 8]: inhibition in data set [1] was half-maximal at 63.1 nM (IC50). Take `COc1nc2ccc(Br)cc2cc1[C@@H](c1ccccc1)[C@@]1(c2cccc3ccccc23)CCN(C)CO1` (single isomer, unassigned) [Compound 11]: the melting point is 108 °C. Half-maximal inhibition in data set [1] (IC50) required 316 nM. Taken in the same sequence, the figures for `COc1nc2ccc(Br)cc2cc1[C@H](c1ccccc1)C1(c2ccccc2)CCN(C)CO1` (single isomer, unassigned) [Compound 12] were 168 °C and 158 nM. As for `COc1nc2ccc(-c3ccccc3)cc2cc1[C@@H](c1ccccc1)[C@@]1(c2cccc3ccccc23)CCN(C)CO1` (single isomer, unassigned) [Compound 13], in data set [1], the midpoint of inhibition, the IC50, lay at 316 nM. That is a sub-micromolar value.

In data set [1], `COc1ccc2nc(OC)c([C@@H](c3ccccc3)[C@@]3(c4cccc5ccccc45)CCN(C)CO3)cc2c1` (single isomer, unassigned) [Compound 14] gave an IC50 of 316 nM. That is a sub-micromolar value. `COc1nc2ccc(-c3ccco3)cc2cc1[C@@H](c1ccccc1)[C@@]1(c2cccc3ccccc23)CCN(C)CO1` (single isomer, unassigned) [Compound 16] had an IC50 in data set [1] of 316 nM. For `COc1nc2ccc(Br)cc2cc1[C@@H](c1ccc(Cl)cc1)[C@@]1(c2cccc3ccccc23)CCN(C)CO1` (single isomer, unassigned) [Compound 17], the IC50 in data set [1] is 316 nM. This counts as sub-micromolar. Turning to `CCN1CC[C@@](c2ccc(F)cc2F)(C(c2ccccc2)c2cc3cc(Br)ccc3nc2OC)OC1=O` (single isomer, unassigned) [Compound 19], the melting point came to 216 °C.
